Measurements: US20190169218A1, “AMPHIPATHIC COMPOUND HAVING NOVEL PENTA-SACCHARIDE HYDROPHILIC GROUP AND USE THEREOF” (Industry-University Cooperation Foundation Hanyang …, priority 2016, published 2019)

Tests used:
[1] = critical micelle concentration (CMC) by hydrophobic fluorescent staining with diphenylhexatriene (DPH); format: physicochemical
Description: Methods of measuring CMC are not particularly limited, and methods widely known in the art may be used. For example, a fluorescence staining method using diphenylhexatriene (DPH) may be used.
To characterize PSAs of Preparation Examples 1 to 3 synthesized according to the synthetic method of Example 1; PSEs of Preparation Examples 4 to 7 synthesized according to the synthetic method of Example 2; TPS-Es and TPS-ELs of Preparation Examples 8 to 14 synthesized according to the synthetic method of Example 3; and TPS-As of Preparation Examples 15 to 17 synthesized according to the synthetic method of Example 4, the critical micellar concentrations (CMCs) of PSAs, PSEs and TPSs and the hydrodynamic radii (Rh) of formed micelles were measured.
(§1) Specifically, critical micellar concentrations (CMCs) were measured using hydrophobic fluorescent staining and diphenylhexatriene (DPH), and the hydrodynamic radii (Rh) of micelles formed by each compound at a concentration of 1.0 wt % were measured using dynamic light scattering (DLS). The results were compared with results obtained from an existing amphipathic molecule (detergent), DDM, and are shown in Table 1.

[2] = hydrodynamic radius of micelles by dynamic light scattering (DLS); format: physicochemical; settings: compound at 1.0 wt %
Description: Methods of measuring the radius of micelles are not particularly limited, and methods widely known in the art may be used. For example, dynamic light scattering (DLS) may be used.
as §1
When measuring, each of PSAs, PSEs and TPSs was used at a concentration of 1.0 wt %.

CMC [1] | CMC (wt %) [1] | Rh (nm), hydrodynamic radius of micelles [2] | SMILES
~0.27 mM | ~0.0300 wt % | 2.66 ± 0.04 nm | CCCCCCCOCC(COCCCCCCC)O[C@@H]1OC(CO[C@@H]2OC(CO)[C@@H](O)C(O)C2O)[C@@H](O[C@@H]2OC(CO)[C@@H](O)C(O)C2O)C(O[C@@H]2OC(CO)[C@@H](O)C(O)C2O)C1O[C@@H]1OC(CO)[C@@H](O)C(O)C1O (stereo partly drawn) [PSE-C7]
~0.006 mM | ~0.0009 wt % | 4.5 ± 0.39 nm | CCCCCCCCOCC(COCCCCCCCC)(COCCCCCCCC)CO[C@@H]1OC(COCCCO[C@@H]2OC(CO)[C@@H](O)C(O)C2O)[C@@H](OCCCO[C@@H]2OC(CO)[C@@H](O)C(O)C2O)C(OCCCO[C@@H]2OC(CO)[C@@H](O)C(O)C2O)C1OCCCO[C@@H]1OC(CO)[C@@H](O)C(O)C1O (stereo partly drawn) [TPS-E8L]
~0.020 mM | ~0.0024 wt % | 2.9 ± 0.05 nm | CCCCCCOCC(COCCCCCC)(COCCCCCC)CO[C@@H]1OC(CO[C@@H]2OC(CO)[C@@H](O)C(O)C2O)[C@@H](O[C@@H]2OC(CO)[C@@H](O)C(O)C2O)C(O[C@@H]2OC(CO)[C@@H](O)C(O)C2O)C1O[C@@H]1OC(CO)[C@@H](O)C(O)C1O (stereo partly drawn) [TPS-E6]
~0.012 mM | ~0.0015 wt % | 13.0 ± 0.8 nm | CCCCCCCOCC(COCCCCCCC)(COCCCCCCC)CO[C@@H]1OC(CO[C@@H]2OC(CO)[C@@H](O)C(O)C2O)[C@@H](O[C@@H]2OC(CO)[C@@H](O)C(O)C2O)C(O[C@@H]2OC(CO)[C@@H](O)C(O)C2O)C1O[C@@H]1OC(CO)[C@@H](O)C(O)C1O (stereo partly drawn) [TPS-E7]
